Laboratory results taken from PubChem BioAssay AID1845197 (Molecular Pharmacology Branch, DTP, NCI, 2023).

Test system: 349418-098-R tumor spheroid viability
Test: Anticancer human tumor 349418-098-R patient-derived lung adenocarcinoma cell line growth inhibition
Details: spheroids with HUVEC and MSC; for IC50: curve of first compound; for viability, T/C: stronger effect = lower value
Description: Multicellular complex tumor spheroid response to DNA repair inhibitors in combination with DNA-damaging drugs
This study explores the anticancer activities of DNA-damaging drugs and inhibitors of DNA damage repair, both as single agents and in combinations. Complex tumor spheroids comprised of malignant cells, endothelial cells and mesenchymal stem cells served as an in vitro model for human solid tumors. This model system incorporates physiologically relevant features and patient-derived or established malignant cell lines with clinically relevant genetic alterations from many tumor types. Twenty-six patient-derived or established malignant cell lines were evaluated representing sarcoma, melanoma, small cell lung cancer (SCLC), non-small cell lung cancer (NSCLC), as well as bladder, ovarian and pancreatic cancers. The concentration ranges selected for each drug and investigational agent were based upon clinically achievable concentrations if the clinical Cmax of the agent was known.
Compounds. The drugs and compounds olaparib (NSC753686), talazoparib (NSC767125), berzosertib (NSC777718), elimusertib (NSC800525), nedisertib (NSC802822), VX-984 (NSC792969), AZD-1390 (NSC803789), temozolomide (NSC362856), topotecan (NSC609699), trabectedin (NSC813783), staurosporine (NSC755774), and gemcitabine (NSC613327) were obtained from the National Cancer Institute (NCI) Developmental Therapeutics Program Chemical Repository. The FDA-approved anticancer drug set is available from the Developmental Therapeutics Program at https://dtp.cancer.gov/organization/dscb/obtaining/available_plates.htm. […] The stock solutions were prepared in dimethyl sulfoxide (DMSO, Sigma-Aldrich, St. Louis, MO, cat. D2650) at 400-fold the tested concentration and stored at -70 degrees C. Prior to their use, the stock solutions were diluted in fresh medium and the final DMSO concentration in the assay was 0.25% (v/v). All drugs and investigational agents were tested over a range starting from a high concentration at or near the clinical Cmax and decreasing in half-log increments. If the clinical Cmax for an agent had not been determined, the highest concentration tested was 10 microM.
Cell Lines. The patient-derived cancer cell (PDC) lines: 156681-154-R-J1-PDC, 283228-195-R-J1-PDC, 287954-098-R-J1-PDC, 292921-168-R-J2-PDC, 349418-098-R-PDC, 425362-245-T-J1-PDC, 556581-035-R-J1-PDC, and BL0293-F563-PDC were received from the NCI Patient-Derived Models Repository (PDMR, https://pdmr.cancer.gov). The established cell lines HS-SY-2 (RRID:CVCL_8719), MPNST, and SYO-1 (RRID:CVCL_7146) were obtained from the Sloan Kettering Institute. The alveolar soft parts sarcoma cell line ASPS-1 (RRID:CVCL_S738) was established at the NCI and grown from internal seed stocks. The following established cell lines were purchased from the American Type Culture Collection (ATCC, Manassas, VA): G-401 (ATCC, cat. CRL-1441, RRID:CVCL_0270), SW982 (ATCC, cat. HTB-93, RRID:CVCL_1734), VA-ES-BJ (ATCC, cat. CRL-2138, RRID:CVCL_1785), NCI-H719 (ATCC, cat. CRL-5837, RRID:CVCL_1582), NCI-H196 (ATCC, cat. CRL-5823, RRID:CVCL_1509), NCI-H841 (ATCC, cat. CRL-5845, RRID:CVCL_1595), NCI-H1618 (ATCC, cat. CRL-5879, RRID:CVCL_1480), NCI-H1876 (ATCC, cat. CRL-5902, RRID:CVCL_1503), DMS 114 (ATCC, cat. CRL-2066; RRID:CVCL_1174), NCI-H211 (ATCC, cat. CRL-5824; RRID:CVCL_1529), and SW 1271 (ATCC, cat. CRL-2177, RRID:CVCL_1716). The small cell lung cancer cell line COR-L88 was purchased from Sigma-Aldrich (cat. 92031917-1VL, RRID:CVCL_1141). The non-small cell lung cancer cell lines NCI-H226 (RRID:CVCL_1544) and NCI-H322M (RRID:CVCL_1557) were established at the NCI and grown from internal seed stocks. Pooled donor human umbilical vein endothelial cells (HUVEC, Lonza, cat. CC-2519) and human mesenchymal stem cells (hMSC, Lonza, cat. PT-2501) were purchased from Lonza (Walkersville, MD).
Cell Culture. All cells were maintained in an incubator at 37 degrees C and 5% CO2 with 95% humidity. […]
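Note: spheroids exposed to compound for 7 days before measurement.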
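Throughout, for viability, T/C: percent of vehicle control viability with 100% = DMSO-treated spheroids.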

Which results are given for `O=C(c1cc(Cc2n[nH]c(=O)c3ccccc23)ccc1F)N1CCN(C(=O)C2CC2)CC1` + CC[C@@]1(O)C(=O)OCc2c1cc1n(c2=O)Cc2cc3c(CN(C)C)c(O)ccc3nc2-1?
IC50 (second compound 0.003 µM): 27.4 µM; IC50 (second compound 0.00949 µM): 23.4 µM; IC50 (second compound 0.03 µM): 4.08 µM; IC50 (second compound 0.0949 µM): < 0.0949 µM; IC50 (second compound 0.3 µM): < 0.0949 µM; viability, T/C (second compound 0.003 µM, first compound 0.0949 µM): 102%; viability, T/C (second compound 0.003 µM, first compound 0.3 µM): 96.3%; viability, T/C (second compound 0.003 µM, first compound 0.949 µM): 98%; viability, T/C (second compound 0.003 µM, first compound 3 µM): 97.6%; viability, T/C (second compound 0.003 µM, first compound 9.49 µM): 76%; viability, T/C (second compound 0.003 µM, first compound 30 µM): 47.8%; viability, T/C (second compound 0.00949 µM, first compound 0.0949 µM): 99.2%; viability, T/C (second compound 0.00949 µM, first compound 0.3 µM): 101%; viability, T/C (second compound 0.00949 µM, first compound 0.949 µM): 97.8%; viability, T/C (second compound 0.00949 µM, first compound 3 µM): 94.3%; viability, T/C (second compound 0.00949 µM, first compound 9.49 µM): 72.6%; viability, T/C (second compound 0.00949 µM, first compound 30 µM): 43.8%; viability, T/C (second compound 0.03 µM, first compound 0.0949 µM): 67.3%; viability, T/C (second compound 0.03 µM, first compound 0.3 µM): 72.8%; viability, T/C (second compound 0.03 µM, first compound 0.949 µM): 61.5%; viability, T/C (second compound 0.03 µM, first compound 3 µM): 58.8%; viability, T/C (second compound 0.03 µM, first compound 9.49 µM): 29.8%; viability, T/C (second compound 0.03 µM, first compound 30 µM): 12.8%; viability, T/C (second compound 0.0949 µM, first compound 0.0949 µM): 19.8%; viability, T/C (second compound 0.0949 µM, first compound 0.3 µM): 21.7%; viability, T/C (second compound 0.0949 µM, first compound 0.949 µM): 20.8%; viability, T/C (second compound 0.0949 µM, first compound 3 µM): 18%; viability, T/C (second compound 0.0949 µM, first compound 9.49 µM): 12%; viability, T/C (second compound 0.0949 µM, first compound 30 µM): 7.08%; viability, T/C (second compound 0.3 µM, first compound 0.0949 µM): 3.58%; viability, T/C (second compound 0.3 µM, first compound 0.3 µM): 3.79%; viability, T/C (second compound 0.3 µM, first compound 0.949 µM): 4.35%; viability, T/C (second compound 0.3 µM, first compound 3 µM): 4.53%; viability, T/C (second compound 0.3 µM, first compound 9.49 µM): 3.36%; viability, T/C (second compound 0.3 µM, first compound 30 µM): 3.46%
